The values that follow come from the NIST ThermoML archive (doi:10.1016/j.tca.2017.12.019).

For data set [1] the following is noted: Crystal; DTA.
A short description of data set [2]: Molar enthalpy of transition or fusion. The conditions noted are these: Crystal; DSC.

Structures are written as SMILES. Numbers after ± are expanded uncertainties.

Consider `CCCCCCCCCCCC(=O)O` [dodecanoic acid], for which the Normal melting temperature in data set [1] came to 42.70 ± 0.7 °C. Further, the “Molar enthalpy of transition or fusion” value in data set [2] came out at 8.43 ± 0.234 kcal/mol.
